From patent US9670220B2, “Fused heterocyclic derivatives as S1P modulators” (Abbvie B.V., priority 2010, dated 2017)

Key:
[1] = biological target: human S1P5 receptor (Homo sapiens (Human), UniProt Q9H228); experiment: In vitro functional activity (agonism) on human S1P5 receptors, CHO-human-S1P5-Aequorin assay; type: cell-based; details: aequorin luminescence; for EC50: read-out: S1P5 pEC50 (converted)
Method: In Vitro Functional Activity (Agonism) on Human 51P5 Receptors
The CHO-human-S1P5-Aeqorin assay was bought from Euroscreen, Brussels (Euroscreen, Technical dossier, Human Lysophospholid S1P5 (Edg8) receptor, DNA clone and CHO AequoScreen™ recombinant cell-line, catalog n°: ES-593-A, September 2006). Human-S1P5-Aequorin cells express mitochondrial targeted apo-Aequorin. […] This luminescent response is dependent on the agonist concentration. Luminescence is measured using the MicroBeta Jet (Perkin Elmer). Agonistic effects of compounds are expressed as pEC50.

[2] = biological target: human S1P3 receptor (Homo sapiens (Human), UniProt Q99500); experiment: In vitro functional activity (agonism) on human S1P3 receptors, CHO-human-S1P3-Aequorin assay; type: cell-based; details: aequorin luminescence; for EC50: read-out: S1P3 pEC50 (converted)
Method: In Vitro Functional Activity (Agonism) on Human S1P3 Receptors
The CHO-human-S1P3-Aeqorin assay (CHO/Gα16/AEQ/h-S1P3) was established at Solvay Pharmaceuticals. […] This luminescent response is dependent on the agonist concentration. Luminescence is measured using the MicroBeta Jet (Perkin Elmer). Agonistic effects of compounds are expressed as pEC50.

[3] = biological target: T1, human S1P1 receptor (Homo sapiens (Human), UniProt P21453); experiment: In vitro functional activity (agonism) on human S1P1 receptors (method B), CHO-K1-human S1P1 cAMP assay; type: cell-based; details: determined using method B (cAMP, forskolin); for EC50: read-out: S1P1^B pEC50 (converted)
Method: The CHO-K1-Human S1P1-c-AMP assay was performed at Euroscreenfast, Brussels (Euroscreen, Human S1P1 coupling Gi/0, (Edg1) receptor, catalog no: FAST-0197C, December 2009).
Recombinant CHO-K1 cells expressing human S1P1, grown to mid-log Phase in culture media without antibiotics, detached, centrifuged and re-suspended. For agonist testing cells are mixed with compound and Forskolin and incubated at room temperature. Cells are lyses and cAMP concentration are estimated, according to the manufacturer specification, With the HTRF kit from CIS-BIO International (cat n°62AM2PEB).
Agonistic effects of compounds are expressed as a percentage of the activity of the reference compound at its EC100 concentration, EC50 is calculated and results are reported as pEC50.

[4] = biological target: T1, human S1P1 receptor; details: agonism, determined using method A (aequorin)
Source text: In Vitro Functional Activity (Agonism) on Human S1P1 Receptors (Method A)
The CHO-K1-human-S1P1-Acqorin assay was bought from Euroscreen Fast, Brussels (Euroscreen, Technical dossier, Human S1P1 (Edg1) receptor, DNA clone and CHO-K1 AequoScreen™ recombinant cell-line, catalog n°: FAST-0197 L, February 2010). Human-S1P1-Aequorin cells express mitochondrial targeted apo-Aequorin. Cells have to be loaded with coelanterazine, in order to reconstitute active Aequorin. After binding of agonists to the human S1P1 receptor the intracellular calcium concentration increases and binding of calcium to the apo-Aequorin/coelenterazine complex leads to an oxidation reaction of coelenterazine, which results in the production of apo-Aequorin, coelenteramide, CO2 and light ([…]max 469 nm). This luminescent response is dependent on the agonist concentration. Luminescence is measured using the MicroBeta Jet (Perkin Elmer). Agonistic effects of compounds are expressed as pEC50. Compounds were tested at a 10 points half log concentration range, and 2 independent experiments were performed in single point's measurements.

Sequence of human S1P5 receptor (Q9H228 whole entry): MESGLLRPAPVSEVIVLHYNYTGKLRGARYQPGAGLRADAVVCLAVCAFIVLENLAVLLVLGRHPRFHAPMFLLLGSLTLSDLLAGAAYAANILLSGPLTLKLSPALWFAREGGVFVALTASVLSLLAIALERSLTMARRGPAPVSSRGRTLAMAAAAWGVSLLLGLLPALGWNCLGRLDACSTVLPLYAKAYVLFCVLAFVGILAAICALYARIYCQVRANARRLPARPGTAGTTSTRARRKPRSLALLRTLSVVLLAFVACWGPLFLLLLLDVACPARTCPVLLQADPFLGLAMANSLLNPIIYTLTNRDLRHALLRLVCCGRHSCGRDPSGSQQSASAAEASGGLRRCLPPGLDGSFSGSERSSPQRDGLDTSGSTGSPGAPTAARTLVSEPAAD
Sequence of human S1P3 receptor (Q99500 whole entry): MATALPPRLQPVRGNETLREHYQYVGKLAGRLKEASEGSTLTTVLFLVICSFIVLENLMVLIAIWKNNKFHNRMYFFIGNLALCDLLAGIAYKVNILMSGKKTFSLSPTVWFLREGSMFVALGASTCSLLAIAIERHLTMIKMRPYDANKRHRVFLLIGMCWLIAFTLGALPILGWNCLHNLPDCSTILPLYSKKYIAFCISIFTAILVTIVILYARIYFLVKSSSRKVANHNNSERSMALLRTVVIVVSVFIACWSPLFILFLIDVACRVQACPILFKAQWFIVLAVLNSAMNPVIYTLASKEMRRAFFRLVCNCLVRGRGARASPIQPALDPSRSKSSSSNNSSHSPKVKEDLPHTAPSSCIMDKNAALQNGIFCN
T1 sequence (P21453 whole entry): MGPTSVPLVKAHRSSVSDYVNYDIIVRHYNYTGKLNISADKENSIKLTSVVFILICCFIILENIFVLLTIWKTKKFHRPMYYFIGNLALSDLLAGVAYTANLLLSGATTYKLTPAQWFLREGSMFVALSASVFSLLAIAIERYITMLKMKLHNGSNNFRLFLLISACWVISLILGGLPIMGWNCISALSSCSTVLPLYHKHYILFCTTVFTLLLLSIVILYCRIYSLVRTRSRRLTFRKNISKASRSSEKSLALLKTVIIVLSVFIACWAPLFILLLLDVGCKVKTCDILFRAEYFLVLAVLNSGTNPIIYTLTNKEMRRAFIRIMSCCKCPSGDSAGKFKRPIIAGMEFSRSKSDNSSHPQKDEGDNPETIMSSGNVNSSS

| EC50 [1] | EC50 [2] | EC50 [3] | Structure (SMILES) | S1P5 pEC50 [1] | S1P3 pEC50 [2] | S1P1^B pEC50 [3] | S1P1^A pEC50 [4] |
| --- | --- | --- | --- | --- | --- | --- | --- |
| 5.01 nM | 5010 nM | 251 nM | O=C(O)CCCN1CCc2oc(-c3ccc(OCc4ccccc4F)cc3)cc2C1 [Compound 35, 4-{2-[4-(2-Fluoro-benzyloxy)-phenyl]-6,7-dihydro-4H-furo[3,2-c]pyridine-5-yl}-butyric acid] | – | – | – | – |
| – | – | – | CC(CN1CCc2oc(-c3ccc(OCc4ccc(Cl)cc4)cc3)nc2C1)C(=O)O (stereo not drawn) [Compound 157, 3-{2-[4-(4-Chloro-benzyloxy)-phenyl]-6,7-dihydro-H-oxazolo[4,5-c]pyridine-5-yl}-2-methyl-propionic acid] | 8.1 | 5.3 | 6.2 | – |
| – | – | – | CC(CN1CCc2oc(-c3ccc(OCc4ccc(C(F)(F)F)cc4)cc3)nc2C1)C(=O)O (stereo not drawn) [Compound 156, 3-{2-[4-(4-Trifluoromethyl-benzyloxy)-phenyl]-6,7-dihydro-H-oxazolo[4,5-c]pyridine-5-yl}-2-methyl-propionic acid] | 8.4 | 5.5 | 6.2 | – |
| – | – | – | O=C(O)C1CC(N2CCc3oc(-c4ccc(OCc5ccc(OC(F)(F)F)cc5)cc4)nc3C2)C1 (stereo not drawn) [Compound 307, 3-{2-[4-(4-Trifluoromethoxybenzyloxy)-phenyl]-6,7-dihydro-H-oxazolo[4,5-c]pyridine-5-yl}-cyclobutane carboxylic acid] | 7.3 | <5.0 | – | <5 |
| – | – | – | O=C(O)CCCN1CCc2oc(-c3ccc(OCc4ccc(C(F)(F)F)cc4)cc3F)nc2C1 [Compound 85, 4-{2-[4-(4-Trifluoromethyl-benzyloxy)-2-fluoro-phenyl]-6,7-dihydro-H-oxazolo[4,5-c]pyridine-5-yl}-butyric acid] | 8.6 | 6.3 | <5.5 | – |
| 15.8 nM | 3160 nM | 100 nM | O=C(O)CCN1CCc2oc(-c3ccc(OCc4ccccc4F)cc3)cc2C1 [Compound 33, 3-{2-[4-(2-Fluoro-benzyloxy)-phenyl]-6,7-dihydro-4H-furo[3,2-c]pyridine-5-yl}-propionic acid] | – | – | – | – |
| – | – | – | O=C(O)CCCN1CCc2oc(-c3ccc(OCc4ccccc4F)cc3F)cc2C1 [Compound 73, 4-{2-[4-(2-Fluoro-benzyloxy)-2-fluoro-phenyl]-6,7-dihydro-4H-furo[3,2-c]-pyri-dine-5-yl}-butyric acid] | 8.2 | 6.3 | 8.0 | – |
| – | – | – | O=C(O)CCCN1CCc2oc(-c3ccc(OCc4cccc(F)c4F)cc3)nc2C1 [Compound 57] | 8.0 | <5 | <5.5 | – |
| 7.94 nM | > 10000 nM | 251 nM | CC(CC(=O)O)N1CCc2oc(-c3ccc(OCc4ccccc4)cc3)cc2C1 (stereo not drawn) [Compound 76, 3-{2-[4-Benzyloxy-phenyl]-6,7-dihydro-4H-furo[3,2-c]pyridine-5-yl}-butyric acid] | – | – | – | – |
| – | – | – | O=C(O)CCCN1CCc2oc(-c3ccc(OCc4ccccc4)cc3)nc2C1 [Compound 53, 4-{2-[4-Benzyloxy-phenyl]-6,7-dihydro-H-oxazolo[4,5-c]pyridine-5-yl}-butyric acid] | 7.9 | <5 | – | <4.5 |
| – | – | – | CC(CN1CCc2oc(-c3ccc(OCc4ccc(C(F)(F)F)cc4)cc3F)nc2C1)C(=O)O (stereo not drawn) [Compound 271, 3-{2-[4-(4-Trifluoromethyl-benzyloxy)-2-fluoro-phenyl]-6,7-dihydro-H-oxazolo[4,5-c]pyridine-5-yl}-2-methyl-propionic acid] | 8.0 | 5.4 | 6.2 | – |
| – | – | – | O=C(O)C1CC(N2CCc3oc(-c4ccc(OCc5ccc(F)c(F)c5)cc4)nc3C2)C1 (stereo not drawn) [Compound 277, 3-{2-[4-(3,4-Difluorobenzyloxy)-phenyl]-6,7-dihydro-H-oxazolo[4,5-c]pyridine-5-yl}-cyclobutane carboxylic acid] | 8.5 | <5.0 | – | 5.2 |
| – | – | – | Cc1cc(OCc2ccccc2F)ccc1-c1nc2c(o1)CCN(CCCC(=O)O)C2 [Compound 89, 4-{2-[4-(2-Fluoro-benzyloxy)-2-methyl-phenyl]-6,7-dihydro-H-oxazolo[4,5-c]pyridine-5-yl}-butyric acid] | 8.2 | <5.0 | 5.9 | – |
| – | – | – | O=C(O)CCCN1CCc2oc(-c3ccc(OCc4ccc(Cl)cc4)c(F)c3)nc2C1 [Compound 211, 4-{2-[4-(4-Chloro-benzyloxy)-3-fluoro-phenyl]-6,7-dihydro-H-oxazolo[4,5-c]pyridine-5-yl}-butyric acid] | 8.3 | <5.0 | 6.1 | – |
| – | – | – | O=C(O)CCCN1CCc2oc(-c3ccc(OCc4ccccc4F)c(Cl)c3)nc2C1 [Compound 283, 4-{2-[4-(2-Fluoro-benzyloxy)-3-chloro-phenyl]-6,7-dihydro-H-oxazolo[4,5-c]pyridine-5-yl}-butyric acid] | 7.7 | <5 | – | <4.5 |
| – | – | – | O=C(O)CCN1CCc2oc(-c3ccc(OCc4ccccc4)cc3)nc2C1 [Compound 47] | 8.0 | <5 | <5.5 | – |
| – | – | – | O=C(O)CCCN1CCc2oc(-c3ccc(OCc4ccc(Cl)c(Cl)c4)cc3F)nc2C1 [Compound 227, 4-{2-[4-(3,4-Dichloro-benzyloxy)-2-fluoro-phenyl]-6,7-dihydro-H-oxazolo[4,5-c]pyridine-5-yl}-butyric acid] | 8.5 | <6.0 | 6.0 | – |
| – | – | – | O=C(O)C1CC(N2CCc3oc(-c4ccc(OCc5ccc(F)c(F)c5)cc4)nc3C2)C1 (stereo not drawn) [Compound 278, 3-{2-[4-(3,4-Difluorobenzyloxy)-phenyl]-6,7-dihydro-H-oxazolo[4,5-c]pyridine-5-yl}-cyclobutane carboxylic acid] | 7.4 | <5 | – | <5 |
| – | – | – | O=C(O)C1CC(N2CCc3oc(-c4ccc(OCc5ccc(OC(F)(F)F)cc5)cc4)nc3C2)C1 (stereo not drawn) [Compound 306, 3-{2-[4-(4-Trifluoromethoxybenzyloxy)-phenyl]-6,7-dihydro-H-oxazolo[4,5-c]pyridine-5-yl}-cyclobutane carboxylic acid] | 8.1 | <5.0 | – | <5 |
| – | – | – | CC(CN1CCc2oc(-c3ccc(OCc4ccccc4)cc3)nc2C1)C(=O)O (stereo not drawn) [Compound 146, 3-[2-(4-Benzyloxy-phenyl)-6,7-dihydro-H-oxazolo[4,5-c]pyridine-5-yl]-2-methyl-propionic acid] | 7.8 | <5.0 | <5.5 | – |
| – | – | – | CC(CC(=O)O)N1CCc2oc(-c3ccc(OCc4cccc(F)c4F)cc3)nc2C1 (stereo not drawn) [Compound 175] | 8.3 | 5.8 | <5.5 | – |
| 3.98 nM | 794 nM | 31.6 nM | CC(CN1CCc2oc(-c3ccc(OCc4ccc(Cl)cc4)cc3)cc2C1)C(=O)O (stereo not drawn) [Compound 77, 3-{2-[4-(4-Chloro-benzyloxy)-phenyl]-6,7-dihydro-4H-furo[3,2-c]pyridine-5-yl}-2-methyl-propionic acid] | – | – | – | – |
